Test [1] can be described thus: DRUGMATRIX: Calcium Channel Type L, Benzothiazepine radioligand binding (ligand: [3H] Diltiazem). The following applies: Not Active = under 50% inhibition at 10 µM. Type of test: cell membranes, Rattus norvegicus, Wistar, Brain, Membrane.
Test [2] has as its target T1, Amine oxidase [flavin-containing] A (Homo sapiens, UniProt P21397).
T1 sequence (P21397 whole entry): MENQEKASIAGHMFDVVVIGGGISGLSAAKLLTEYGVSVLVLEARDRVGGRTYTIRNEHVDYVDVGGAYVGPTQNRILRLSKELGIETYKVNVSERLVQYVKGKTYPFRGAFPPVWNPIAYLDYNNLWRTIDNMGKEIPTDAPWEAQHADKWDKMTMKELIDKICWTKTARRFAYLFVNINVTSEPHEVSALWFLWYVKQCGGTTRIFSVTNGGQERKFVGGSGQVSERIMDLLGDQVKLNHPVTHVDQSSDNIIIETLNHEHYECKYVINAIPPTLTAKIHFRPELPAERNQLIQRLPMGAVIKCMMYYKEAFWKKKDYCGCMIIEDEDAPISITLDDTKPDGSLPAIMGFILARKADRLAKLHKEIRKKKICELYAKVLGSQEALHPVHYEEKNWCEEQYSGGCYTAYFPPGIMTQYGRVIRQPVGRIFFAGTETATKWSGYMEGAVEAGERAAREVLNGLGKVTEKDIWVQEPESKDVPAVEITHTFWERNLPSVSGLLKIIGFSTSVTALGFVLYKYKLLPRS
As to the kind of experiment: DRUGMATRIX: Monoamine Oxidase MAO-A enzyme inhibition (substrate: Kynuramine). Also on record: species or system BTI-TN-5B1-4. The following applies: Not Active = under 50% inhibition at 10 µM.

A short description of test [3]: DRUGMATRIX: Glutamate, AMPA radioligand binding (ligand: [3H] AMPA). Type of test: cell membranes, Rattus norvegicus, Wistar, Cerebral cortex, Membrane. The following applies: Not Active = under 50% inhibition at 10 µM.
Test [4] has as its target T2, Alpha-1A adrenergic receptor (Rattus norvegicus, UniProt P43140).
T2 sequence (P43140 whole entry): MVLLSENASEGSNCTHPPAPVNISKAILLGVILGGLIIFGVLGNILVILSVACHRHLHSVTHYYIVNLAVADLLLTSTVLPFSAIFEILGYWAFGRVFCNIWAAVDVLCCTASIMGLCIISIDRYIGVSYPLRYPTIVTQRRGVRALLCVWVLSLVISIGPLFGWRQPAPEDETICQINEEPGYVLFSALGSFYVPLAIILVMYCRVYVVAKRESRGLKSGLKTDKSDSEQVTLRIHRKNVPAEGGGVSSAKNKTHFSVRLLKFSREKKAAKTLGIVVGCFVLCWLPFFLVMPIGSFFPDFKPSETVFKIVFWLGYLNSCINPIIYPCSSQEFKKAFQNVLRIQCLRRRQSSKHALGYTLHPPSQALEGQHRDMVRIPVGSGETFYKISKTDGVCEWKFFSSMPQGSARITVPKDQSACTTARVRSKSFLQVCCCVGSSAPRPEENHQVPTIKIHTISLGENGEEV
As to the kind of experiment: DRUGMATRIX: Alpha-1A adrenergic receptor radioligand binding (ligand: prazosin). The following applies: Not Active = under 50% inhibition at 10 µM. The test is classed as cell membranes, Wistar, Submaxillary gland, Membrane.

The target in a further test is T3, Adenosine receptor A1 (Homo sapiens, UniProt P30542).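 Note: radioligand binding assay at the adenosine A1 receptor, with DPCPX serving as the labelled ligand; in other assays of this panel Not Active means under 50% inhibition at 10 µM.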
T3 sequence (P30542 whole entry): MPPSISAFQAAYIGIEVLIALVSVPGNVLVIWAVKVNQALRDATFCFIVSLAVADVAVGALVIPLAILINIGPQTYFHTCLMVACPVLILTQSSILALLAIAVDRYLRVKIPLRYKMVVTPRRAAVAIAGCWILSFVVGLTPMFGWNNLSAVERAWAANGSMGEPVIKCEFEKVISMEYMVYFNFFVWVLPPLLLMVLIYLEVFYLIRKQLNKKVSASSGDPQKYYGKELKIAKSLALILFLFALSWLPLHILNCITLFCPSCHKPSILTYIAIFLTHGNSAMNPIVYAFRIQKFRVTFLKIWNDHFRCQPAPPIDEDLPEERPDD
Type of test: cell membranes, Membrane. The note with it: cho.

The nature of test [5]: DRUGMATRIX: Potassium Channel [KATP] radioligand binding (ligand: [3H] Glyburide). The test is classed as cell membranes, Membrane. The following applies: hit-t15; Not Active = under 50% inhibition at 10 µM.
Test [6] addresses Matrix metalloproteinase-9 (Homo sapiens, UniProt P14780). As to the kind of experiment: biochemical. The test is classed as cell-based.

Where a SMILES comes first, the peptide text is derived from it. Bridges are numbered along the chain shown (N, C = ends). [ ]: non-standard residue; d: D form. The star is where a group is joined. Threoninol(2S,3R) = C[C@@H](O)[C@H](CO)N*

Sequence of Matrix metalloproteinase-9 (P14780 whole entry): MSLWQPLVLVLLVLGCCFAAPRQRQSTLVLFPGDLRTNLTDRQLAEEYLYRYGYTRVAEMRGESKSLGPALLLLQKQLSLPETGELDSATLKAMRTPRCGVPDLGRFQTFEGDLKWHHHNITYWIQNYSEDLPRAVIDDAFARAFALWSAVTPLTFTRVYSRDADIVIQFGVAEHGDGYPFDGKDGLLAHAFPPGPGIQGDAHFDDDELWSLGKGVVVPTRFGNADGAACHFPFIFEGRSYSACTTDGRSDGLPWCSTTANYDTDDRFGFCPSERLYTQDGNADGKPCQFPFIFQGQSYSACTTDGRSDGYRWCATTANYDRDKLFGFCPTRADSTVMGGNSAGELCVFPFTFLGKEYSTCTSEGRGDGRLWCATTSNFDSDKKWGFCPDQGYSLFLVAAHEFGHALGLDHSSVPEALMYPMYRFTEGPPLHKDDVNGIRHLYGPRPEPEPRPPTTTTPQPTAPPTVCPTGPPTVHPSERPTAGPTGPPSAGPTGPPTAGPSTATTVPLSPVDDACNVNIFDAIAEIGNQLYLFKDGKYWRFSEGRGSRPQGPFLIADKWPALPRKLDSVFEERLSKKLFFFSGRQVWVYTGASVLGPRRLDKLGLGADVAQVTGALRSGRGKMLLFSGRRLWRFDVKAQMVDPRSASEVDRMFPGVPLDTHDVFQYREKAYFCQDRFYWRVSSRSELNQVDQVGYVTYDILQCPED

With `COc1ccccc1C(=O)N1CCC(Cc2ccccc2)CC1`, the IC50 result (in test [1]; in test [2] (bti-tn-5b1-4); in test [3]; in test [4]; at Adenosine receptor A1; in test [5]) was “Not Active” throughout. Also, the IC50 – broadly, the midpoint of a concentration-inhibition curve – in test [6] is recorded as “Not Active”. Also, the Ki result in test [1], in test [3] and in test [5] was “Not Active” in each case.

As to `Cc1ccccc1C(=O)N1CCC(Cc2ccccc2)CC1`, the IC50 result (in test [1]; in test [2] (bti-tn-5b1-4); in test [3]; in test [4]; against Adenosine receptor A1; in test [5]) was “Not Active” in each case. In addition, the IC50 result in test [6] was “Not Active”. For the same molecule, the Ki entry in test [1], in test [3] and in test [5] was “Not Active” each time.

Regarding `O=C1CC[C@H](N2C(=O)c3ccccc3C2=O)C(=O)N1`, the IC50 entry (in test [1]; in test [2] (bti-tn-5b1-4); in test [3]; in test [4]; against Adenosine receptor A1; in test [5]) was “Not Active” each time. In test [6], the IC50 entry is reported as “Not Active”. Besides, the Ki entry in test [1], in test [3] and in test [5] was “Not Active” in each case.

On to `N=C(Nc1ccccc1)Nc1ccccc1`, for which the IC50 result (in test [1]; in test [2] (bti-tn-5b1-4); in test [3]; in test [4]; on Adenosine receptor A1; in test [5]) was “Not Active” each time. Also, the IC50 entry in test [6] is recorded as “Not Active”. The Ki result in test [1], in test [3] and in test [5] was “Not Active” throughout.

Take `C[C@@H](O)[C@H](CO)NC(=O)[C@@H]1CSSC[C@H](NC(=O)[C@H](N)Cc2ccccc2)C(=O)N[C@@H](Cc2ccccc2)C(=O)N[C@H](Cc2c[nH]c3ccccc23)C(=O)N[C@@H](CCCCN)C(=O)N[C@@H]([C@@H](C)O)C(=O)N1` (H-[dF]CF[dW]KTC-{Threoninol(2S,3R)}; disulfide 2-7): the IC50 result (in test [1]; in test [2] (bti-tn-5b1-4); in test [3]; in test [4]; at Adenosine receptor A1; in test [5]) was “Not Active” in each case. Besides, the IC50 entry in test [6] was “Not Active”. For the same molecule, the Ki result in test [1], in test [3] and in test [5] was “Not Active” in each case.

`S=C=Nc1cccc2ccccc12` [1-NAPHTHYLISOTHIOCYANATE]: the IC50 result in test [1] was “Not Active”; in test [2] (read-out: IC50) it was 22.4 µM; in test [3] it was “Not Active”; in test [4], “Not Active”; against Adenosine receptor A1, “Not Active”; in test [5], “Not Active”. The IC50 entry in test [6] is on record as “Not Active”. In addition, the Ki result in test [1], in test [3] and in test [5] was “Not Active” each time.

Consider `C[C@](O)(CS(=O)(=O)c1ccc(F)cc1)C(=O)Nc1ccc(C#N)c(C(F)(F)F)c1` [(R)-BICALUTAMIDE], for which the IC50 result (in test [1]; in test [2] (bti-tn-5b1-4); in test [3]; in test [4]; at Adenosine receptor A1; in test [5]) was “Not Active” throughout. The IC50 entry in test [6] is “Not Active”. Moreover, the Ki result in test [1], in test [3] and in test [5] was “Not Active” throughout.

Turning to `CCCC(=O)Nc1ccc(OCC(O)CNC(C)C)c(C(C)=O)c1` (stereo not drawn) [ACEBUTOLOL], the IC50 entry (in test [1]; in test [2] (bti-tn-5b1-4); in test [3]; in test [4]; against Adenosine receptor A1; in test [5]) was “Not Active” each time. Further, the IC50 result in test [6] was “Not Active”. Besides, the Ki entry in test [1], in test [3] and in test [5] was “Not Active” each time.

For the molecule `CC(=O)Nc1ccc(O)cc1` [ACETAMINOPHEN], the IC50 result (in test [1]; in test [2] (bti-tn-5b1-4); in test [3]; in test [4]; against Adenosine receptor A1; in test [5]) was “Not Active” throughout. Besides, the IC50 entry in test [6] is given as “Not Active”. In addition, the Ki result in test [1], in test [3] and in test [5] was “Not Active” each time.

With `COc1cc2c(c3oc(=O)c4c(c13)CCC4=O)[C@@H]1C=CO[C@@H]1O2` [AFLATOXIN], the 50% inhibitory concentration (IC50) entry (in test [1]; in test [2] (bti-tn-5b1-4); in test [3]; in test [4]; against Adenosine receptor A1; in test [5]) was “Not Active” throughout. Also, the IC50 result in test [6] is “Not Active”. Moreover, the Ki entry (in test [1]; in test [2] (bti-tn-5b1-4); in test [3]; in test [4]; at Adenosine receptor A1; in test [5]) was “Not Active” each time. Further, the Ki result in test [6] is listed as “Not Active”.

Consider `N=C(N)NC(=O)c1nc(Cl)c(N)nc1N` [AMILORIDE], for which the IC50 result in test [1] is “Not Active”; in test [2] (read-out: IC50), 3.91 µM; in test [3], “Not Active”; in test [4], “Not Active”; on Adenosine receptor A1, “Not Active”; in test [5] it was “Not Active”. Moreover, the IC50 entry in test [6] is “Not Active”. In addition, the Ki entry in test [1], in test [3] and in test [5] was “Not Active” in each case.

On to `Cc1cc(=O)n(-c2ccccc2)n1C` [ANTIPYRINE], for which the IC50 entry (in test [1]; in test [2] (bti-tn-5b1-4); in test [3]; in test [4]; at Adenosine receptor A1; in test [5]) was “Not Active” in each case. Also, the IC50 result in test [6] is “Not Active”. Besides, the Ki entry in test [1], in test [3] and in test [5] was “Not Active” throughout.

On to `CN1C(=O)COc2c(C(=O)NC3CN4CCC3CC4)cc(Cl)cc21` (stereo not drawn) [AZASETRON], for which the IC50 entry (in test [1]; in test [2] (bti-tn-5b1-4); in test [3]; in test [4]; against Adenosine receptor A1; in test [5]) was “Not Active” throughout. Further, the IC50 entry in test [6] is listed as “Not Active”. The Ki entry in test [1], in test [3] and in test [5] was “Not Active” each time.

Turning to `C[C@H]1C[C@H]2[C@@H]3CCC4=CC(=O)C=C[C@]4(C)[C@@]3(Cl)[C@@H](O)C[C@]2(C)[C@@]1(O)C(=O)CO` [BECLOMETHASONE], the IC50 result (in test [1]; in test [2] (bti-tn-5b1-4); in test [3]; in test [4]; against Adenosine receptor A1; in test [5]) was “Not Active” throughout. Further, in test [6], the IC50 entry is listed as “Not Active”. Moreover, the Ki entry in test [1], in test [3] and in test [5] was “Not Active” throughout.

As to `O=C1CC2(CCCC2)CC(=O)N1CCCCN1CCN(c2ncccn2)CC1` [BUSPIRONE], the IC50 entry (in test [1]; in test [2] (bti-tn-5b1-4); in test [3]; on Adenosine receptor A1; in test [5]; in test [6]) was “Not Active” each time. The Ki result in test [1], in test [3] and in test [5] was “Not Active” each time.

(Values after ChEMBL document CHEMBL1909046, “DrugMatrix in vitro pharmacology data”.)
